In brackets after ≈: the same amount, converted by molar mass. Several values for one entry are separate records, joined by “and”; a condition that tells them apart may be missing. Equal values may be shown once. Read-outs that look alike come from different tables or passages of the source.
Tests used:
[1] = Cardiovascular safety pharmacology in dogs; assay type: in vivo, dog; details: oral administration
[2] = CNS safety pharmacology study in rats; assay type: in vivo, rat; details: oral administration
[3] = test system: NCI-H460 lung human cancer cell line; details: Athymic nude mice, paclitaxel alone 24 mg/kg IV, every other day for 4 doses
Procedure: (§1) In these studies, tumor inhibition rate (IR %) was calculated as ([1−relative tumor growth in treated group/relative tumor growth in control group]×100). Tumor regression was calculated as (Mean Tumor WeightEnd of treatment/Mean tumor WeightBeginning of treatment)×100. Therefore, a value <100% for tumor regression indicates a decrease in tumor weight over the course of the study and a value >100% indicates an increase in tumor weight. Tumor growth delay was calculated as the median number of days to reach two tumor mass doublings.

[4] = test system: HT-29 colon human cancer cell line; details: NU/Nu Balb/C mice
Procedure: as §1

[5] = test system: SKOV-3 ovarian human cancer cell line; details: NU/Nu Balb/C mice, paclitaxel alone 30 mg/kg IV, 1x weekly for 3 weeks
Procedure: as §1

[6] = test system: MDA-MB-231 mammary human cancer cell line; details: NCr-nu (athymic) mice, paclitaxel alone 18 mg/kg IV, every other day for 4 doses
Procedure: as §1

[7] = test system: A431 vaginal epidermoid human cancer cell line; details: NU/Nu Balb/C mice, paclitaxel alone 30 mg/kg IV, 1x weekly for 3 weeks
Procedure: as §1

[8] = test system: SK-OV-3 ovarian human cancer cell line; details: NCr-nu (athymic) mice, paclitaxel alone 18 mg/kg IV, every other day for 4 doses
Procedure: as §1

[9] = for AUCinf / AUClast / CL/F / Cmax / MRTinf / Vd/F / t1/2 / CLR: in vivo, po
[10] = test system: tubulin in MS1, SVRA221a, and SVRbag4 cell lines; assay: Immunofluorescence microscopy of tubulin disruption; assay type: cell-based, mouse; details: SVRbag4 treated with 1-100 nM paclitaxel for 3 hours
Procedure: Coverslips (22-mm) were pre-coated with rat tail collagen for 1 hour then seeded with cells in 6-well plates for 24 hours before treatment. […] After blocking with 2% BSA in PBS for 30 min, cells were incubated with anti α-tubulin antibody (Sigma 6199) diluted in blocking buffer (2% BSA in PBS) for 1.5 hours at room temperature. Cells were washed three times with PBS and incubated with […] anti-Mouse IgG (Invitrogen) for 1 hours at room temperature. Following three PBS washes, coverslips were mounted on glass slides in ProLong antifade reagent (Invitrogen). Fluorescent images were captured using a Nikon TE2000-E inverted microscope for two independent experiments.

[11] = dogs
SVRA221a cells = assay: In vitro cytotoxicity (MTT) in SVRA221a cells; assay type: cell-based, mouse; details: 72 hours, Mean ± SD
Procedure: (§2) Three independent experiments of two replicates were completed. A 10 μL aliquot of 3-(4,5-dimethylthiazol-2-yl)-2,5-diphenyltetrazolium bromide (MTT) solution (5 mg/mL in PBS) was added to each well and incubated at 37° C. for 2 hours. The culture medium was removed followed by addition of 100 μL of DMSO to each well. The absorbance in each well was measured at 540 nm using a SpectraMax microplate reader. A sigmoid Emax model using nonlinear regression (Equation 1) with least squares fit was used to estimate Emax and GI50 values using GraphPad Prism 6 for each experiment:
(§3) The average Emax and GI50 values and standard deviated from three individual experiments were calculated and reported. R-squared of all curve fits exceeded 0.9.

[12] = Paclitaxel pharmacokinetics in rats after single oral dose with Compound A; assay type: in vivo, rat
[13] = Paclitaxel pharmacokinetics in dogs after single oral dose with Compound A; assay type: in vivo, dog
SVRbag4 cells = assay: In vitro cytotoxicity (MTT) in SVRbag4 cells; assay type: cell-based, mouse; details: SVRbag4, 72 hours, Mean ± SD
Procedure: as §2, §3

MS1 cells = assay: In vitro cytotoxicity (MTT) in MS1 cells; assay type: cell-based, mouse; details: MS1, 72 hours, Mean ± SD
Procedure: as §2, §3

[14] = human; for AUC0-24 / Cmax: range across dose levels, 2 consecutive daily oral doses
Procedure: A 2-part study was conducted in subjects with advanced/metastatic or recurrent gastric cancer. […] In some cases, an additional 15 mg tablet of Compound A on Day 2 was given in each dosing week. A total of 56 subjects enrolled in this study: 10 subjects with advanced malignant tumors in Part 1 and 46 subjects with advanced gastric cancer in Part 2.

HMEC-1 cells = assay: In vitro cytotoxicity (MTT) in HMEC-1 cells; assay type: cell-based, human; details: HMEC-1, 72 hours, Mean ± SD
Procedure: as §2, §3

[15] = Fasted, single oral dose paclitaxel 6 mg/kg with Compound A 3 mg/kg
[16] = Fed, single oral dose paclitaxel 6 mg/kg with Compound A 3 mg/kg
[17] = Mus musculus, medium pre-supplemented with 1 μM Compound A
[18] = single oral dose paclitaxel 5 mg/kg with Compound A
[19] = single oral dose paclitaxel 10 mg/kg with Compound A
[20] = single oral dose paclitaxel 20 mg/kg with Compound A
[21] = single oral dose paclitaxel 30 mg/kg with Compound A
[22] = single oral dose paclitaxel 40 mg/kg with Compound A
[23] = single oral dose paclitaxel 50 mg/kg with Compound A
[24] = single oral dose paclitaxel 2 mg/kg with Compound A
[25] = single oral dose paclitaxel 4 mg/kg with Compound A
[26] = single oral dose paclitaxel 6 mg/kg with Compound A

COc1cc2c(cc1OC)CN(CCc1ccc(-n3nnc(-c4cc(OC)c(OC)cc4NC(=O)c4cc(=O)c5ccccc5o4)n3)cc1)CC2 [Compound A]
Effect on PR and QRS intervals [1]: absence | Effect on body temperature [2]: absence

CC(=O)O[C@H]1C(=O)[C@@]2(C)[C@H]([C@H](OC(=O)c3ccccc3)[C@]3(O)C[C@H](OC(=O)[C@H](O)[C@@H](NC(=O)c4ccccc4)c4ccccc4)C(C)=C1C3(C)C)[C@]1(OC(C)=O)CO[C@@H]1C[C@@H]2O [Paclitaxel, 5,20-Epoxy-1,2,4,7,10-13-hexahydroxytax-11-en-9-one-4,10-diacetate 2-benzoate 13-ester with (2R,3S)—N-benzoyl-3-phenylisoserine]
Effect: growth delay [3]: 16.3 days | Effect: tumor regression ([4]; paclitaxel alone 20 mg/kg IV every 4 days for 4 doses, >100% = increase in tumor weight): 163.09% tumor | Effect: tumor inhibition rate (IR %) ([4]; paclitaxel alone 25 mg/kg IP every 4 days for 4 doses): 65.82 IR % | Effect: tumor inhibition rate (IR %) [5]: 72.79 IR % | Effect: growth delay [6]: >55.9 days | Effect: tumor inhibition rate (IR %) [7]: 45.41 IR % | Effect: growth delay [8]: 43.8 days | MTD ([9]; 24 subjects with advanced solid cancer, oral paclitaxel 60 to 420 mg/m^2 on days 1, 8, 15 of 28-day cycle with Compound A): not reached | AUCinf ([9]; human, 60 mg/m2): 727.1 ng·h/mL | AUClast ([9]; human, 60 mg/m2): 584.1 ng·h/mL | CL/F ([9]; human, 60 mg/m2): 178.4 L/h | Cmax ([9]; human, 60 mg/m2): 149.6 ng/mL | MRTinf ([9]; human, 60 mg/m2): 28.6 h | Vd/F ([9]; human, 60 mg/m2): 9128.7 L | t1/2 ([9]; human, 60 mg/m2): 32.1 h | AUCinf ([9]; human, 120 mg/m2): 1840.1 ng·h/mL | AUClast ([9]; human, 120 mg/m2): 1611.1 ng·h/mL | CLR ([9]; human, 120 mg/m2): 3.0 L/h | MRTinf ([9]; human, 120 mg/m2): 17.0 h | Vd/F ([9]; human, 120 mg/m2): 4036.0 L | AUCinf ([9]; human, 180 mg/m2): 1985.0 ng·h/mL | AUClast ([9]; human, 180 mg/m2): 1673.9 ng·h/mL | CL/F ([9]; human, 180 mg/m2): 173.4 L/h | CLR ([9]; human, 180 mg/m2): 1.8 L/h | Cmax ([9]; human, 180 mg/m2): 432.0 ng/mL | MRTinf ([9]; human, 180 mg/m2): 21.9 h | Vd/F ([9]; human, 180 mg/m2): 6030.7 L | t1/2 ([9]; human, 180 mg/m2): 24.4 h | AUCinf ([9]; human, 240 mg/m2): 2971.2 ng·h/mL | AUClast ([9]; human, 240 mg/m2): 2547.4 ng·h/mL | CL/F ([9]; human, 240 mg/m2): 147.6 L/h | CLR ([9]; human, 240 mg/m2): 2.4 L/h | Cmax ([9]; human, 240 mg/m2): 509.6 ng/mL | MRTinf ([9]; human, 240 mg/m2): 23.4 h | Vd/F ([9]; human, 240 mg/m2): 6011.5 L | t1/2 ([9]; human, 240 mg/m2): 25.7 h | AUCinf ([9]; human, 300 mg/m2): 3481.1 ng·h/mL | AUClast ([9]; human, 300 mg/m2): 3135.0 ng·h/mL | CLR ([9]; human, 300 mg/m2): 2.0 L/h | MRTinf ([9]; human, 300 mg/m2): 16.2 h | Vd/F ([9]; human, 300 mg/m2): 4927.3 L | AUCinf ([9]; human, 360 mg/m2): 2851.7 ng·h/mL | AUClast ([9]; human, 360 mg/m2): 2512.1 ng·h/mL | CL/F ([9]; human, 360 mg/m2): 228.7 L/h | CLR ([9]; human, 360 mg/m2): 7.3 L/h | Cmax ([9]; human, 360 mg/m2): 655.0 ng/mL | MRTinf ([9]; human, 360 mg/m2): 18.7 h | Vd/F ([9]; human, 360 mg/m2): 6837.8 L | t1/2 ([9]; human, 360 mg/m2): 20.8 h | AUCinf ([9]; human, 420 mg/m2): 3731.5 ng·h/mL | AUClast ([9]; human, 420 mg/m2): 3407.1 ng·h/mL | CL/F ([9]; human, 420 mg/m2): 244.9 L/h | CLR ([9]; human, 420 mg/m2): 2.9 L/h | Cmax ([9]; human, 420 mg/m2): 707.5 ng/mL | MRTinf ([9]; human, 420 mg/m2): 14.7 h | Vd/F ([9]; human, 420 mg/m2): 7175.1 L | t1/2 ([9]; human, 420 mg/m2): 19.9 h | T1/2 ([9]; human, range over oral paclitaxel doses 60 to 420 mg/m^2 with Compound A): 19.9 to 32.1 h | concentration at which condensed and rounded morphology and polymerization of microtubules start [10]: 5-10 nM and 4.2-8.5 ng/mL | AUClast [11, 15]: 1599.8 ± 416.5 ng·h/mL | CL/F [11, 15]: 4.2 ± 1.2 L/h | Tmax [11, 15]: 0.5 ± 0.0 h | t1/2 [11, 15]: 9.4 ± 0.3 h | AUClast [11, 16]: 849.1 ± 119.9 ng·h/mL | CL/F [11, 16]: 6.4 ± 1.3 L/h | Cmax [11, 16]: 299.0 ± 54.6 ng/mL | Tmax [11, 16]: 0.7 ± 0.2 h | t1/2 [11, 16]: 9.9 ± 2.7 h | Paclitaxel Cmax and AUC, fasted group as compared to fed group ([11]; orally administered paclitaxel): ~2 fold | Emax (% inhibition) (SVRA221a cells): 96 ± 1.1 % inhibition | GI50 (SVRA221a cells; [17]): 1.8 ± 1 ng/mL (≈ 2.11 nM) | AUClast Paclitaxel [12, 18]: 333 ng·h/mL | Cmax Paclitaxel [12, 18]: 103 ng/mL | Tmax Paclitaxel [12, 18]: 0.6 h | AUClast Paclitaxel [12, 19]: 1027 ng·h/mL | Cmax Paclitaxel [12, 19]: 356 ng/mL | Tmax Paclitaxel [12, 19]: 0.7 h | AUClast Paclitaxel [12, 20]: 3009 ng·h/mL | Cmax Paclitaxel [12, 20]: 852 ng/mL | Tmax Paclitaxel [12, 20]: 1.2 h | AUClast Paclitaxel [12, 21]: 6638 ng·h/mL | Cmax Paclitaxel [12, 21]: 1761 ng/mL | Tmax Paclitaxel [12, 21]: 1.2 h | t1/2 Paclitaxel [12, 21]: 6.0 h | AUClast Paclitaxel [12, 22]: 11052 ng·h/mL | Cmax Paclitaxel [12, 22]: 2488 ng/mL | Tmax Paclitaxel [12, 22]: 1.5 h | t1/2 Paclitaxel [12, 22]: 5.5 h | AUClast Paclitaxel [12, 23]: 13124 ng·h/mL | Cmax Paclitaxel [12, 23]: 3067 ng/mL | Tmax Paclitaxel [12, 23]: 1.4 h | t1/2 Paclitaxel [12, 23]: 5.3 h | AUClast Paclitaxel [13, 24]: 413 ng·h/mL | Tmax Paclitaxel [13, 24]: 0.5 h | AUClast Paclitaxel [13, 25]: 1331 ng·h/mL | Tmax Paclitaxel [13, 25]: 0.7 h | AUClast Paclitaxel [13, 26]: 2123 ng·h/mL | Tmax Paclitaxel [13, 26]: 0.5 h | GI50 (SVRbag4 cells; [17]): 3.9 ± 1 ng/mL (≈ 4.57 nM) | Emax (% inhibition) (SVRbag4 cells): 99 ± 1.4 % inhibition | Emax (% inhibition) (MS1 cells): 93 ± 4.5 % inhibition | GI50 (MS1 cells; Mus musculus, MS-1, medium pre-supplemented with 1 μM Compound A): 1.8 ± 0.36 ng/mL (≈ 2.11 nM) | Overall exposure on Day 2, higher than Day 1 ([14]; in vivo, po): 20-30% | AUC0-24 ([14]; Day 1): 611 to 894 ng·h/mL | Cmax ([14]; Day 1): 202 to 280 ng/mL | AUC0-24 ([14]; Day 2): 735 to 1081 ng·h/mL | Cmax ([14]; Day 2): 159 to 315 ng/mL | Emax (% inhibition) (HMEC-1 cells): 99 ± 0.10 % inhibition | GI50 (HMEC-1 cells; Homo sapiens, medium pre-supplemented with 1 μM Compound A): 0.46 ± 0.23 ng/mL (≈ 0.539 nM)

— patent publication US20190314361A1 (Athenex Therapeutics Limited, priority 2018, published 2019)
